In patent publication US9486472B2, “Methods for modulating neuronal responses” (UNIVERSITY OF BRITISH COLUMBIA CANADA, priority 2003, dated 2016):
No end group written: not given here.

Legend:
AMPAR = assay: Quantification of AMPAR endocytosis in response to NMDA treatment (cellular ELISA), cortical neurons; assay type: cell-based, Wistar rat; settings: 50 μM NMDA + 10 μM glycine 30 min; peptide 1 μM, 60 min pretreatment; control 69%
Experimental: The cortex was dissected from 18 days in utero Wistar embryos and was treated with trypsin-EDTA for 15 min at 37° C. The cells were then washed 3 times and triturated to a single cell suspension. The neurons with glia were then seeded at a density of ˜2.5×10^5 neurons/well in 12 well tissue culture plates coated with poly-D lysine. The cells were then cultured for 24-48 h in plating media (Gibco Neurobasal™, 1% FBS, 2% B-27 supplement, 0.5 mM […], and 25 μM glutamic acid), after which the cells were treated with Neurobasal™ maintenance media (NMM: Gibco Neurobasal™ Media+0.5 mM […], 2% B-27 supplement) with 10 μM 5-Fluoro-2′-deoxyuridine (FDU) to enrich the culture for neurons (−85%). After 24 h-48 h culture in FDU, the cells were maintained on NMM changed every 4 days.
Using cellular ELISA, the amount of intracellular versus extracellular AMPAR expression was measured allowing quantification of AMPAR endocytosis in response to NMDA insult. DIV 12-13 neurons were washed once with room temperature ECS. […] The absorbance at 492 nm was read using a μQuant plate reader (Bio-Tek Instruments Inc.). The data were analyzed by first subtracting the absorbance values for the no-primary controls from the other samples. The percentage AMPAR surface expression was then expressed as a ratio of the non-permeabilized samples to the permeabilized samples. […]

[1] = Dose tolerance to serial doses, vital parameters monitored; assay type: in vivo, Sprague-Dawley rats
Experimental: FIG. 15. Dose tolerance curve to serial doses of Tat-GluR2-3Y. Two adult male Sprague-Dawley rats were given serial doses of Tat-GluR2-3Y and the basic vital parameters were monitored.
In order to determine the maximum dose that could be administered without adverse reaction, two male Sprague Dawley rats were injected with serial doses of Tat-GluR2-3Y ranging from 0.5 nmoles/g to 30 nmoles/g and basic vital parameters were monitored. […] Assuming complete dispersion of the peptide in the animal, this dose corresponds roughly to a concentration of 3 μM.

rats [2] = settings: IV 60 min prior to test session; versus saline
Experimental: A. Rats maintained on a restricted feeding schedule were trained to lever-press for food pellets (45 mg) on a fixed-ratio 2 (FR2) schedule during 2-hour test sessions. Rats received IV injections of saline, GluR2-3A, or GluR2-3Y, in a counterbalanced order, 60 min prior to the test session. […] B. Rats were first trained to self-administer d-amphetamine (0.2 mg/infusion) via a jugular catheter on an FR2 schedule of reinforcement. Once responding in the 3 hour test sessions had stabilized, the rats were then trained on a Progressive Ratio Schedule in which successively more responses were required to obtain each successive reinforcement. […] Once stable Break point values were established, rats received IV injections of saline, GluR2-3A, or GluR2-3Y, in a counterbalanced order, 60 min prior to the test session.

rats [3] = assay: Behavioural sensitization to d-amphetamine (stereotypy scores); assay type: in vivo, rat; settings: one hour intravenous pre-treatment
Experimental: To induces behaviour sensitization to addictive drugs that lead to substance abuse, four separate groups of adult rats were given repetitive injections of damphetamine (2 mg/kg, intraperitoneally (IP)) or saline, every other day for a total of 10 injections. On days 1, 5 and 10 of the injection regimen, the rats were placed in 2-level locomotor boxes for 30 min before the amphetamine injection to habituate to the boxes, and for an additional 2 hours following the injection, and stereotypy scores (drug-induced behaviours) were assessed at 1 minute intervals every 10 minutes for the duration of the 2 hour session. After the 10th injection of d-amphetamine, the rats were given 21 days off, and chronically indwelling catheters were implanted into the jugular vein under anaesthesia.
On day 21, the rats were pretreated with 1.5 nM/grTat-GluR2-3Y, or Tat-GluR2-3A or saline by either IV injection, or intracranial microinjection into the nucleus accumbens (Nac), and returned to their home cages for 60 min. The rats were then placed in the locomotor boxes (observation chambers) for 30 min and then treated with a challenge dose of d-amphetamine (2 mg/kg, IP). Stereotypy scores were then assessed as described (FIG. 12A), Points represent mean stereotypy scores (±S.E.M) for groups of rats over the 2 hour test session. […]

Sprague-Dawley rats = assay: Transient focal ischemia model (MCA occlusion), TUNEL staining and neurological exam; assay type: in vivo, rat; settings: 10 min prior to MCA occlusion; 3 nmoles/g
Experimental: The procedure was performed essentially as described previously (70). Briefly, adult male Sprague-Dawley rats between 280 and 320 g (20 h fasted weight) were anesthetized with an inhaled mixture of 4% isofluorane, in 30% oxygen balanced nitrous oxide, and maintained on 1.5% isofluorane. Bronchial secretions were minimized by administering 0.5 mg/kg of atropine intraperitoneally. […] The experimenter was blinded to the identity of the treatment groups for all surgeries and down-stream experiments. Under a dissection microscope, the common carotid artery (CCA), external carotid artery (ECA), and internal carotid artery (ICA) were exposed and dissected. […] Rectal temperature, and blood pressure measured with a tail cuff were measured before treatment, 15 min post injection, 50 min post injection, and 15 min post MCA occlusion. The plasma pH, O2, and CO2 were measured with a Rapidlab™ 348 blood gas analyzer (Bayer Diagnostics) in some animals to ensure that the gas flow rates used were appropriate and yielded reproducible blood gases. […]
At day 1 post MCAo rats were anesthetized with 1.5 mL of 25% urethane and were perfused with 100 mL of 0.9% saline followed by 120 mLs of 4% paraformaldehyde in PBS. […] The slices were scored for number of cells that stained positive for TMR-TUNEL per field of view at 10× magnification. […]

Molecule	AMPAR surface expression (AMPAR) [%]	behaviour after revival from the dose response curve ([1]; both animals)	dose up to which the drug was tolerated ([1]; serial doses 0.5 to 30 nmoles/g, above: large decline in blood pressure, increase in breathing rate) [nmol/g]	doses evoking little response in the vital parameters monitored ([1]; serial doses, anesthetized rats)	Break Point measures for drug-reward (rats [2])	total number of responses for food reward (rats [2])	side effects (rats [3])	mean arterial blood pressure (MABP) versus saline (Sprague-Dawley rats)
CN[C@H](CC(=O)O)C(=O)O [NMDA, N-methyl-D-aspartate]	55	–	–	–	–	–	–	–
YGRKKRRQRRRYKEGYNVYGIE [Tat-GluR2-3Y, YGRKKRRQRRR-YKEGYNVYGIE]	–	showed no signs of mental depression or other behavioural changes	~12	up to 6 nmoles/g	no significant differences in the Break Point measures for drug-reward	no significant differences in total number of responses for food reward	without any notable side effects	significantly lower mean arterial blood pressure
